Key:
[1] = tested on: drug resistant human small cell lung carcinoma cell line H69/LX4 which overexpresses P-glycoprotein (Pgp); assay: Cytotoxicity, drug resistant H69/LX4 cell line (AlamarBlue); type: cell-based; settings: for IC50: concentration required to give 50% cell kill, 5–6 days incubation; for Rf (resistance factor): IC50 in H69/LX4 divided by IC50 in H69/P, Pgp-dependent MDR
Procedure: (§1) The cytotoxicity of compounds of formula (I) was measured using the H69 parental (H69/P) human small cell lung carcinoma cell line and the drug resistant human small cell lung carcinoma cell line H69/LX4 which overexpresses P-glycoprotein (Pgp). The cytotoxicity, as measured by the IC50 (concentration required to give 50% cell kill) in the H69/LX4 cell line divided by the cytotoxicity in the H69/P cell line gives an indication of the degree to which a compound is affected by Pgp-dependent MDR and is termed the resistance factor (Rf) of the compound.
(§2) H69/P and H69/LX4 cells were pipetted into 96-well tissue culture plates and then allowed to incubate at 37° C. for 4 h. […] The plates were incubated for 5–6 days before adding AlamarBlue to each well and returning the plates to the incubator for 5–8 h to allow colour development. The cell numbers in the plates at the end of this period were directly proportional to the absorbance measured at a wavelength of 570 nm (reference wavelength 600 nm).

[2] = molecular target: T1, topoisomerase I (Homo sapiens, UniProt P11387); assay: Stabilisation of cleavable complexes, topoisomerase I; type: biochemical; settings: range where an increase in cleavable complexes was observed relative to controls in the absence of drug
T1 sequence (P11387 1-765): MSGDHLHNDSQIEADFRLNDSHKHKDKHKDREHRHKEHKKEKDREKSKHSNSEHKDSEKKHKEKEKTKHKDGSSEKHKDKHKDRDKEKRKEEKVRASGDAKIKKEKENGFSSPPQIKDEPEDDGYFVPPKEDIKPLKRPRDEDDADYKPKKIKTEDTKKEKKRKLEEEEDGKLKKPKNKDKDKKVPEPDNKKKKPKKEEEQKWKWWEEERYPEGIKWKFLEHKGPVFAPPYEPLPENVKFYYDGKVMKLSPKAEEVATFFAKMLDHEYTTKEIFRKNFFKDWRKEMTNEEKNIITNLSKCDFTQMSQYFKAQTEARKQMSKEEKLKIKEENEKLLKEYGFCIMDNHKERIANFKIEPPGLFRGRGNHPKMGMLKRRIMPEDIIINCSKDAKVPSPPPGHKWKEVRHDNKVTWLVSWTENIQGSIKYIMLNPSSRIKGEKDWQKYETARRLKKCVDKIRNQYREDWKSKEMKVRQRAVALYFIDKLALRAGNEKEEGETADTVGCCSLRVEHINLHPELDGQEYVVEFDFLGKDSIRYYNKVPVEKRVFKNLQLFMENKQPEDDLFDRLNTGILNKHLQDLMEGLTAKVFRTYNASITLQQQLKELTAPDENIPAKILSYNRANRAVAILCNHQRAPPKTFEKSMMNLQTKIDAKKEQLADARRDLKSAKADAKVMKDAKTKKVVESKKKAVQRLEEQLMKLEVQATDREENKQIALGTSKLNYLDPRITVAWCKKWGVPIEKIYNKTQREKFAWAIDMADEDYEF
Excerpt: (§3) Compounds were also studied for their ability to stabilize cleavable complexes in the presence of either topoisomerase I or II essentially as described previously (Finlay et al, Eur J. Cancer 32A, 708–714, 1996). Presence of cleavable complexes was indicated by an increase in the number and intensity of bands observed after electrophoresis and autoradiography. The results are expressed as the effective concentration range where an increase in cleavable complexes was observed relative to controls in the absence of drug.

[3] = tested on: topoisomerase II; assay: Stabilisation of cleavable complexes, topoisomerase II; type: biochemical; settings: range where an increase in cleavable complexes was observed relative to controls in the absence of drug
Excerpt: as §3

[4] = tested on: Jurkat human leukaemia cell line (JLC); assay: Cytotoxicity, Jurkat leukaemia cell line JLC; type: cell-based; settings: concentration required to give 50% cell kill
Procedure: (§4) The cytotoxicity of the compounds described herein was also measured using the Jurkat human leukaemia cell line (JLC) and also the amsacrine-resistant Jurkat human leukaemia cell line (JLA) and the doxorubicin-resistant Jurkat human leukaemia cell line (JLD). The cytotoxicity, as measured by the IC50 (concentration required to give 50% cell kill) in the JLA or JLD cell line divided by the cytotoxicity in the JLC cell line gives an indication of the degree to which a compound may be affected by atypical drug resistance and is termed the resistance factor (Rf) of the compound. The method used has been described previously (Finlay et al, Eur J. Cancer 32A, 708–714, 1996). Compounds were active in the range 1 nM to 5 μM.

[5] = tested on: COR-L23 parental (COR-L23/P) human non-small cell lung carcinoma cell line; assay: Cytotoxicity, COR-L23 parental cell line (SRB assay); type: cell-based; settings: concentration required to give 50% cell kill, 5–6 days incubation
Procedure: (§5) The cytotoxicity of the compounds described herein was also measured using the COR-L23 parental (COR-L23/P) human non-small cell lung carcinoma cell line and also the drug resistant human non-small cell lung carcinoma cell line COR-L23/R which overexpresses multidrug resistance associated protein (MRP). The cytotoxicity, as measured by the IC50 (concentration required to give 50% cell kill) in the L23/R cell line divided by the cytotoxicity in the L23/P cell line gives an indication of the degree to which a compound may be affected by MRP-dependant MDR and is termed the resistance factor (Rf) of the compound.
(§6) L23/P and L23/R cells were pipetted into 96-well tissue culture plates and then allowed to incubate at 37° C. for 4 h. […] The plates were incubated for 5–6 days before proliferation was assessed using the sulphurhodamine B (SRB) assay as described by Skehan et al, J Natl Cancer Inst 1990, 82, pp 1107–1112.

[6] = Cytotoxicity, drug resistant COR-L23/R cell line (SRB assay); type: cell-based, human; settings: Homo sapiens, COR-L23/R; concentration required to give 50% cell kill; 5–6 days incubation
Procedure: as §5, §6

[7] = tested on: drug resistant human non-small cell lung carcinoma cell line COR-L23/R which overexpresses multidrug resistance associated protein (MRP); assay: as above; type: cell-based; settings: for Rf (resistance factor): IC50 in L23/R divided by IC50 in L23/P, MRP-dependant MDR
Procedure: as §5, §6

[8] = tested on: H69 parental (H69/P) human small cell lung carcinoma cell line; assay: Cytotoxicity, H69 parental cell line (AlamarBlue); type: cell-based; settings: concentration required to give 50% cell kill, 5–6 days incubation
Procedure: as §1, §2

[9] = tested on: amsacrine-resistant Jurkat human leukaemia cell line (JLA); assay: Cytotoxicity, amsacrine-resistant Jurkat cell line JLA; type: cell-based; settings: for IC50: concentration required to give 50% cell kill; for Rf (JLA/JLC): IC50 in JLA divided by IC50 in JLC, atypical drug resistance
Procedure: as §4

[10] = tested on: doxorubicin-resistant Jurkat human leukaemia cell line (JLD); assay: Cytotoxicity, doxorubicin-resistant Jurkat cell line JLD; type: cell-based; settings: for IC50: concentration required to give 50% cell kill; for Rf (JLD/JLC): IC50 in JLD divided by IC50 in JLC, atypical drug resistance
Procedure: as §4

Row | SMILES | IC50 ([1]; Homo sapiens) [nM] | Rf (resistance factor) [1] | Effective concentration range, Topoisomerase I [2] [µM] | Effective concentration range, Topoisomerase II [3] [µM] | IC50 ([4]; Homo sapiens, Jurkat) [nM] | IC50 ([5]; Homo sapiens, COR-L23) [nM] | IC50 [6] [nM] | Rf (resistance factor) [7] | IC50 ([8]; Homo sapiens) [nM] | IC50 ([9]; Homo sapiens, Jurkat) [nM] | Rf (JLA/JLC) [9] | IC50 ([10]; Homo sapiens, Jurkat) [nM] | Rf (JLD/JLC) [10] | IC50 [1] [nM] | IC50 [4] [nM] | IC50 [5] [nM] | IC50 ([7]; concentration required to give 50% cell kill, 5–6 days incubation) [nM] | IC50 [8] [nM] | IC50 [9] [nM] | IC50 [10] [nM]
1 | COc1cccc2c1ccc1nc3cccc(C(=O)NCCN(C)C)c3nc12 [Compound 3, 4-Methoxy-benzo[a]phenazine-11-carboxylic acid (2-dimethylamino-ethyl)-amide] | 49 | 1.4 | 0.1 to 3.0 | 0.1 to 3.0 | 27 | 14.4 | 19.9 | 1.4 | 35 | 21.6 | 0.8 | 24.3 | 0.9 | – | – | – | – | – | – | –
2 | COc1cccc2c1ccc1nc3cccc(C(=O)N[C@H](C)CN(C)C)c3nc12 [Compound 78, 4-Methoxy-benzo[a]phenazine-11-carboxylic acid (2-dimethylamino-1-(R)-methyl-ethyl)-amide] | 31 | 1.3 | 0.03 to 1.0 | 0.03 to 1.0 | 21 | 7.6 | 8.9 | 1.2 | 24 | 14 | 0.7 | 17 | 0.8 | – | – | – | – | – | – | –
3 | CN(C)CCNc1nc2cc(O)ccc2c2c1C(=O)c1ccccc1-2 [TAS-103, reference compound] | – | 1.1 | 0.3 to 10.0 | 0.3 to 10.0 | – | – | – | 1.3 | – | – | 55.9 | – | 71.1 | 22 | 5.4 | 16.3 | 22 | 21 | 302 | 384

From patent US7132419B2, “Pharmaceutical compounds” (Xenova Limited, priority 2000, dated 2006)
